Measured values: US10851089B2, “Matrix metalloproteinase (MMP) inhibitors and methods of use thereof” (Foresee Pharmaceuticals Co., Ltd., priority 2018, dated 2020)
Read-outs that look alike come from different tables or passages of the source. One block for each molecule: values may come before it.

Legend:
Assay type in all cases: biochemical
[1] = biological target: recombinant human MMP-12 catalytic domain (Homo sapiens (Human), UniProt P39900); assay: MMP-12 inhibitory assay (fluorogenic substrate cleavage)
Description: (§1) The inhibitory effect of compounds on the rate of cleaving fluorogenic MMP substrate (Enzo, BML-P128) by recombinant human MMP-12 catalytic domain (Enzo, BML-SE138) was carried out by methods known in the art. Briefly, to each well of a 96-well black opaque plate, all the reagents were sequentially added by pipetting, and the final reaction contained 4 nM of recombinant human MMP-12 catalytic domain, 4 μM of fluorogenic MMP substrate, and various concentrations (0.15 nM to 10,000 nM) of tested compound dilutions in HEPES buffer (pH 7.5) containing 10 mM of CaCl2, 0.01% Brij® 35 (polyoxyethylene (23) lauryl ether), and 0.1 mg/ml of BSA.
(§2) The enzyme and compounds were pre-incubated on a shaker to mix in wells. After an hour of mixing, fluorogenic substrate was added to each well. Reaction without enzyme was used as a blank control in the plate. The plate was then fed into a plate reader to measure fluorescence intensity at Excitation/Emission wavelengths of 340 nm/440 nm every 10 mins for at least 1 hour at 37° C. The IC50 of each compound in MMP-12 inhibition was determined by using a readout obtained at time point 30 minutes.

[2] = biological target: recombinant human MMP-1 (Homo sapiens (Human), UniProt P03956); assay: MMP selectivity assay MMP-1
Description: as §1, §2
(§3) The MMP selectivity assay was performed by using other recombinant human MMPs, including MMP-1, MMP-2, MMP-3, MMP-7, MMP-8, MMP-9, MMP-10, MMP-13, and MMP-14. The IC50 of the compounds for the other recombinant human MMPs was determined as described above in Example 1, and are shown in Table 2.

[3] = biological target: recombinant human MMP-14 (Homo sapiens (Human), UniProt P50281); assay: MMP selectivity assay MMP-14
Description: as §1, §2, §3

[4] = biological target: recombinant human MMP-2 (Homo sapiens (Human), UniProt P08253); assay: MMP selectivity assay MMP-2
Description: as §1, §2, §3

[5] = biological target: recombinant human MMP-7 (Homo sapiens (Human), UniProt P09237); assay: MMP selectivity assay MMP-7
Description: as §1, §2, §3

[6] = biological target: recombinant human MMP-3 (Homo sapiens (Human), UniProt P08254); assay: MMP selectivity assay MMP-3
Description: as §1, §2, §3

[7] = biological target: recombinant human MMP-8 (Homo sapiens (Human), UniProt P22894); assay: MMP selectivity assay MMP-8
Description: as §1, §2, §3

[8] = biological target: recombinant human MMP-13 (Homo sapiens (Human), UniProt P45452); assay: MMP selectivity assay MMP-13
Description: as §1, §2, §3

[9] = biological target: recombinant human MMP-10 (Homo sapiens (Human), UniProt P09238); assay: MMP selectivity assay MMP-10
Description: as §1, §2, §3

[10] = biological target: recombinant human MMP-9 (Homo sapiens (Human), UniProt P14780); assay: MMP selectivity assay MMP-9
Description: as §1, §2, §3

[11] = readout at 30 minutes, read-out: MMP-12 IC50
[12] = Table 2 selectivity profile, read-out: MMP-12 activity (IC50)

Sequence of recombinant human MMP-9 (P14780 94-707): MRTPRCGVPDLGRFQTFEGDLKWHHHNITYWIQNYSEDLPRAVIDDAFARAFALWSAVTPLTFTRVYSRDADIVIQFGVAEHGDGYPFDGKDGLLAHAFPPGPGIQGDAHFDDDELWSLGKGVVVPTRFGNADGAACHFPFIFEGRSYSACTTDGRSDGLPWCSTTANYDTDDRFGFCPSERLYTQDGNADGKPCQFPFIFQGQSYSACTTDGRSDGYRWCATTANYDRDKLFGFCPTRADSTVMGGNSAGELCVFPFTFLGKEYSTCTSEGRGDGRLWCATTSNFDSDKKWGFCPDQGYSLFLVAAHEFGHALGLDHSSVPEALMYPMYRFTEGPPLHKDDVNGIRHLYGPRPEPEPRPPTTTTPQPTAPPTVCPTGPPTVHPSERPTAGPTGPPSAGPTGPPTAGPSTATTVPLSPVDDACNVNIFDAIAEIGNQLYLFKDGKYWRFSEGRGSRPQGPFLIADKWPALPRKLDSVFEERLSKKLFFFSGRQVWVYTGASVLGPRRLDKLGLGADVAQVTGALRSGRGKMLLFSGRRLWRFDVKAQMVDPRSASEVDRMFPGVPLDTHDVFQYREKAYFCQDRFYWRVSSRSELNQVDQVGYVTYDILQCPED
Sequence of recombinant human MMP-12 catalytic domain (P39900 106-263): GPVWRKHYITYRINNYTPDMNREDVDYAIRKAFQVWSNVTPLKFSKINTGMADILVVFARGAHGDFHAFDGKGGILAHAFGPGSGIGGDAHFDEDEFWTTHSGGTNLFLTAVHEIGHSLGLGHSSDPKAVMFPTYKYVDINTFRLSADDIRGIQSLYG
Sequence of recombinant human MMP-10 (P09238 99-476): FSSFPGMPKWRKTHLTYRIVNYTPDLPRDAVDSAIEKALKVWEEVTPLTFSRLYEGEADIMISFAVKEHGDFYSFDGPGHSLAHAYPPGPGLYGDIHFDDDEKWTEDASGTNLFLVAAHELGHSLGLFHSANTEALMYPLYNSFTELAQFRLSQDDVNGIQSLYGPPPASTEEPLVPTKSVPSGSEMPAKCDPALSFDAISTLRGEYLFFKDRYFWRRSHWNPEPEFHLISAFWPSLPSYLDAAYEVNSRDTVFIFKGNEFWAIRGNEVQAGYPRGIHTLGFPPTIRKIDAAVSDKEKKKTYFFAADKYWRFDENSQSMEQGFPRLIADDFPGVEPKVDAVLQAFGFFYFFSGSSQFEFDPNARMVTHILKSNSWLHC
Sequence of recombinant human MMP-7 (P09237 95-267): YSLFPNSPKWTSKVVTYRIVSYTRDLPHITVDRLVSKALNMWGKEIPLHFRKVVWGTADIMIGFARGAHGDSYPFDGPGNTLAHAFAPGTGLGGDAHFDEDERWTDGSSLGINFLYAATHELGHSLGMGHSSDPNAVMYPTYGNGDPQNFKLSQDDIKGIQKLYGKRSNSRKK
Sequence of recombinant human MMP-1 (P03956 100-469): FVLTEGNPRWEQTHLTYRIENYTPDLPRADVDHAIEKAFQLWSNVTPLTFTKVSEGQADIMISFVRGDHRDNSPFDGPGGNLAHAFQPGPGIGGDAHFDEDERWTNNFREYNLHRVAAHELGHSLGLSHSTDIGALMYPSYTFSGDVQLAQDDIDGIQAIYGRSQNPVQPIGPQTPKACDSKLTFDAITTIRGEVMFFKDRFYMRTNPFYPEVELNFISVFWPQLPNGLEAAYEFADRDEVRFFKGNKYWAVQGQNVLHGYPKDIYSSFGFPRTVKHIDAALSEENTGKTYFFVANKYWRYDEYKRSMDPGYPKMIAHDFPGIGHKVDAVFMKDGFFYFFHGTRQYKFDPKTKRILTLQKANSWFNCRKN
Sequence of recombinant human MMP-3 (P08254 100-477): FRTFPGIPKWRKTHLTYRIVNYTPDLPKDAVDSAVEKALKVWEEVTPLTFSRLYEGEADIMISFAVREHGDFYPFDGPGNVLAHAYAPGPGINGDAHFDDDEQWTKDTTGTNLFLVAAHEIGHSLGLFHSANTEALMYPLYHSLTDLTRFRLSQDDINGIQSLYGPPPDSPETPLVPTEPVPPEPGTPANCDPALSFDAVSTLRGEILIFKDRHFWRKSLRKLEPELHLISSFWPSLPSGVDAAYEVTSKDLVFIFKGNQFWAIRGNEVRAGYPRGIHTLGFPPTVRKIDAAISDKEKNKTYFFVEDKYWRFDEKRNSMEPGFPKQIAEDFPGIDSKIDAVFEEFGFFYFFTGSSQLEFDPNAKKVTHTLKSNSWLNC
Sequence of recombinant human MMP-2 (P08253 110-660): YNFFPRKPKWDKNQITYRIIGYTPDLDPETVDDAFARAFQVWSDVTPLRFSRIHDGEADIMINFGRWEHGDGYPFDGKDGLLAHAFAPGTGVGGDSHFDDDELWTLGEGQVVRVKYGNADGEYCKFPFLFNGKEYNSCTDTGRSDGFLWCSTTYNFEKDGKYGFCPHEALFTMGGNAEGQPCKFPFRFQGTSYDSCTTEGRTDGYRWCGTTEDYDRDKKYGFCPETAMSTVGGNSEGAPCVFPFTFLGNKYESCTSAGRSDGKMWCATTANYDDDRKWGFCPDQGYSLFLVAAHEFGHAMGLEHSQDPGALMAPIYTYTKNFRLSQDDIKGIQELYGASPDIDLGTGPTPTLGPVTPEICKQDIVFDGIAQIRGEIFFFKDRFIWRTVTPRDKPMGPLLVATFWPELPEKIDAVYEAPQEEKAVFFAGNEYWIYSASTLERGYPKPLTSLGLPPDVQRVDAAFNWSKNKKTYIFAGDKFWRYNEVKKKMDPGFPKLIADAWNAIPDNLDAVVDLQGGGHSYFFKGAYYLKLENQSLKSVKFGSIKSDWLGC
Sequence of recombinant human MMP-8 (P22894 101-467): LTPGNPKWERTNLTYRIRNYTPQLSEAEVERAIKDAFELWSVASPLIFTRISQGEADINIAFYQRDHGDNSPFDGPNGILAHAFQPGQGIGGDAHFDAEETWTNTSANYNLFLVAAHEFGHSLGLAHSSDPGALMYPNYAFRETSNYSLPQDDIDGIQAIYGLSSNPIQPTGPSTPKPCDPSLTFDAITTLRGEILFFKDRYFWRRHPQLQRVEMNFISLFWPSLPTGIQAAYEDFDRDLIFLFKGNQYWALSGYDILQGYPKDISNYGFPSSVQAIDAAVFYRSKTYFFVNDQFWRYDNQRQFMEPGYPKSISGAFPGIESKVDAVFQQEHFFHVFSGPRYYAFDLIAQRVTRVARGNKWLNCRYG

Structure (SMILES): Cc1cc(CN(C)c2ccc(Sc3ccoc3C3NC(=O)NC3=O)cc2)ccn1 (stereo not shown) [FC-33]
IC50 [1, 11]: > 1000 nM

Structure (SMILES): NC(=O)c1cccc(COc2ccc(Sc3ccoc3C3NC(=O)NC3=O)cc2)c1 (stereo not shown) [FC-17]
IC50 [1, 12]: < 10 nM
IC50 [1, 11]: < 10 nM
IC50 [2]: > 10000 nM
IC50 [3]: 1000 to 10000 nM
IC50 [4]: 100 to 1000 nM
IC50 [5]: > 10000 nM
IC50 [6]: 100 to 1000 nM
IC50 [7]: 100 to 1000 nM
IC50 [8]: 100 to 1000 nM
IC50 [9]: 100 to 1000 nM
IC50 [10]: 1000 to 10000 nM

Structure (SMILES): Cc1cccc(COc2ccc(Sc3cc(C)oc3C3NC(=O)NC3=O)cc2)c1 (stereo not shown) [FC-28]
IC50 [1, 11]: 10 to 100 nM

Structure (SMILES): CCCOc1cccc(COc2ccc(Sc3ccoc3C3NC(=O)NC3=O)cc2)c1 (stereo not shown) [FC-22]
IC50 [1, 11]: > 1000 nM

Structure (SMILES): CCOc1cc(COc2ccc(Sc3ccoc3C3NC(=O)NC3=O)cc2)ccn1 (stereo not shown) [FC-14]
IC50 [1, 11]: 10 to 100 nM

Structure (SMILES): CCC1(c2occc2Sc2ccc(OCc3ccnc(C)c3)cc2)NC(=O)NC1=O (stereo not shown) [FC-32]
IC50 [1, 11]: < 10 nM

Structure (SMILES): Cc1cccc(COc2ccc(Sc3ccoc3C3(C)NC(=O)NC3=O)cc2)c1 (stereo not shown) [FC-8]
IC50 [1, 11]: < 10 nM

Structure (SMILES): Cc1ccnc(COc2ccc(Sc3ccoc3C3NC(=O)NC3=O)cc2)c1 (stereo not shown) [FC-1]
IC50 [1, 11]: 100 to 1000 nM

Structure (SMILES): Cc1cccc(COc2ccc(Sc3ccoc3C3NC(=O)NC3=O)cc2)n1 (stereo not shown) [FC-2]
IC50 [1, 11]: 10 to 100 nM

Structure (SMILES): Cc1cc(COc2ccc(Sc3ccoc3C3NC(=O)NC3=O)cc2)cc[n+]1[O-] (stereo not shown) [FC-7]
IC50 [1, 11]: 10 to 100 nM

Structure (SMILES): CCOc1cccc(COc2ccc(Sc3ccoc3C3NC(=O)NC3=O)cc2)c1 (stereo not shown) [FC-20]
IC50 [1, 11]: 100 to 1000 nM

Structure (SMILES): NC(=O)c1ccc(COc2ccc(Sc3ccoc3C3NC(=O)NC3=O)cc2)cc1 (stereo not shown) [FC-18]
IC50 [1, 11]: 10 to 100 nM

Structure (SMILES): O=C1NC(=O)C(c2occc2Sc2ccc(OCc3ccc(CO)cc3)cc2)N1 (stereo not shown) [FC-25]
IC50 [1, 11]: < 10 nM

Structure (SMILES): CC(C)Oc1cccc(COc2ccc(Sc3ccoc3C3NC(=O)NC3=O)cc2)c1 (stereo not shown) [FC-21]
IC50 [1, 11]: 100 to 1000 nM

Structure (SMILES): CC(C)Oc1cc(COc2ccc(Sc3ccoc3C3NC(=O)NC3=O)cc2)ccn1 (stereo not shown) [FC-16]
IC50 [1, 11]: 100 to 1000 nM

Structure (SMILES): O=C1NC(=O)C(c2occc2Sc2ccc(OCc3ccccc3CO)cc2)N1 (stereo not shown) [FC-24]
IC50 [1, 11]: < 10 nM

Structure (SMILES): Cc1cncc(COc2ccc(Sc3ccoc3C3NC(=O)NC3=O)cc2)c1 (stereo not shown) [FC-3]
IC50 [1, 11]: 10 to 100 nM

Structure (SMILES): O=C1NC(=O)C(c2occc2Sc2ccc(OCc3cccc(O)c3)cc2)N1 (stereo not shown) [FC-26]
IC50 [1, 11]: < 10 nM

The next lines start with the values.

IC50 [1, 11]: 10 to 100 nM
Structure (SMILES): NC(=O)c1cc(COc2ccc(Sc3ccoc3C3NC(=O)NC3=O)cc2)ccn1 (stereo not shown) [FC-29]

IC50 [1, 11]: 10 to 100 nM
Structure (SMILES): COc1cc(COc2ccc(Sc3ccoc3C3NC(=O)NC3=O)cc2)ccn1 (stereo not shown) [FC-13]

IC50 [1, 11]: < 10 nM
Structure (SMILES): Cc1cccc(COc2ccc(Sc3ccoc3C3(C(C)C)NC(=O)NC3=O)cc2)c1 (stereo not shown) [FC-12]

IC50 [1, 11]: > 1000 nM
Structure (SMILES): Cc1cccc(COc2ccc(Sc3ccoc3C3NC(=O)NC3=O)cc2)[n+]1O (stereo not shown) [FC-5]

IC50 [1, 12]: < 10 nM
IC50 [1, 11]: < 10 nM
IC50 [2]: > 10000 nM
IC50 [3]: 1000 to 10000 nM
IC50 [4]: 100 to 1000 nM
IC50 [5]: > 10000 nM
IC50 [6]: 1000 to 10000 nM
IC50 [7]: 1000 to 10000 nM
IC50 [8]: 1000 to 10000 nM
IC50 [9]: 1000 to 10000 nM
IC50 [10]: 1000 to 10000 nM
Structure (SMILES): O=C1NC(=O)C(c2occc2Sc2ccc(OCc3cccc(CO)c3)cc2)N1 (stereo not shown) [FC-23]

IC50 [1, 12]: < 10 nM
IC50 [1, 11]: < 10 nM
IC50 [2]: > 10000 nM
IC50 [3]: 1000 to 10000 nM
IC50 [4]: 100 to 1000 nM
IC50 [5]: > 10000 nM
IC50 [6]: 100 to 1000 nM
IC50 [7]: 100 to 1000 nM
IC50 [8]: 100 to 1000 nM
IC50 [9]: 100 to 1000 nM
IC50 [10]: 1000 to 10000 nM
Structure (SMILES): Cc1cc(Sc2ccc(OCc3cccc(CO)c3)cc2)c(C2NC(=O)NC2=O)o1 (stereo not shown) [FC-27]

IC50 [1, 11]: 10 to 100 nM
Structure (SMILES): CCC1(c2occc2Sc2ccc(OCc3cccc(C)c3)cc2)NC(=O)NC1=O (stereo not shown) [FC-9]

IC50 [1, 11]: 100 to 1000 nM
Structure (SMILES): Cc1cc(COc2ccc(Sc3ccoc3C3NC(=O)NC3=O)cc2)c[n+]([O-])c1 (stereo not shown) [FC-6]

IC50 [1, 11]: 100 to 1000 nM
Structure (SMILES): CC(C)COc1cc(COc2ccc(Sc3ccoc3C3NC(=O)NC3=O)cc2)ccn1 (stereo not shown) [FC-15]

IC50 [1, 12]: < 10 nM
IC50 [1, 11]: < 10 nM
IC50 [2]: > 10000 nM
IC50 [3]: 1000 to 10000 nM
IC50 [4]: 1000 to 10000 nM
IC50 [5]: > 10000 nM
IC50 [6]: 100 to 1000 nM
IC50 [7]: 1000 to 10000 nM
IC50 [8]: 1000 to 10000 nM
IC50 [9]: 1000 to 10000 nM
IC50 [10]: 1000 to 10000 nM
Structure (SMILES): Cc1cccc(COc2ccc(Sc3ccoc3C3(CC(C)C)NC(=O)NC3=O)cc2)c1 (stereo not shown) [FC-10]

IC50 [1, 12]: < 10 nM
IC50 [1, 11]: < 10 nM
IC50 [2]: > 10000 nM
IC50 [3]: 1000 to 10000 nM
IC50 [4]: 1000 to 10000 nM
IC50 [5]: > 10000 nM
IC50 [6]: 100 to 1000 nM
IC50 [7]: 1000 to 10000 nM
IC50 [8]: 1000 to 10000 nM
IC50 [9]: 1000 to 10000 nM
IC50 [10]: 1000 to 10000 nM
Structure (SMILES): CCCC1(c2occc2Sc2ccc(OCc3cccc(C)c3)cc2)NC(=O)NC1=O (stereo not shown) [FC-11]
